≈ marks a conversion by molar mass, not a printed value. Read-outs that look alike come from different tables or passages of the source.
Legend:
[1] = test system: human colon cancer HCT-116 cells; test: Antitumor effect of sulfasalazine in mice bearing subcutaneous HCT-116 tumors; format: in vivo, KSN nude mice; conditions: 250 mg/kg intraperitoneally once per day; Days 14 and 28 after transplantation; versus saline control; FIG. 1
Procedure: The human colon cancer HCT-116 cells that proliferate in a CD44v-dependent manner were administered subcutaneously to KSN nude mice to form tumors. The cells were transplanted into 10 mice. 250 mg/kg of sulfasalazine or 100 μl of saline was injected to each of groups of 5 mice intraperitoneally once per day. Diameter of tumors was measured on Days 14 and 28 after transplantation and their weights were calculated based on the diameters and compared between the two groups.

T98G cell line = conditions: 0 to 1250 μM calculated as sulfasalazine, two days, FIG. 6
Procedure: Using the same medium as in (3), the T98G cell line was seeded onto 96-well plates at 3,000 cells/well. On the next day, sulfasalazine and the type-A PEGylated sulfasalazines were added at 0 to 1250 μM calculated in concentrations of sulfasalazine. Two days later, cell viability was measured using a CellTiter-Glo (Promega).

[2] = Solubility test in pure water and saline (UV absorption at 238 nm); format: physicochemical; conditions: thermodynamic from solid, room temperature, PEGylated values calculated as sulfasalazine
Procedure: The aqueous solutions thus obtained were centrifuged at 8000 rpm for 30 minutes at room temperature, and 50 μL of each supernatant was taken. One microliter of 5N NaOH solution was added to the supernatant and UV absorption (at 238 nm) was measured for the resulting solution, thereby sulfasalazine concentration in the solution (solubility in pure water and saline) was calculated.

solubility ([2]; pure water, water, read-out: Saturated solubility, pure water): 50 µg/mL (≈ 126 µM)
solubility ([2]; saline, saline or isotonic, read-out: Saturated solubility, saline): 37 µg/mL (≈ 92.9 µM)
Compound: O=C(O)c1cc(/N=N/c2ccc(S(=O)(=O)Nc3ccccn3)cc2)ccc1O [Sulfasalazine]
tumor growth (tumor weight calculated from diameter) [1]: significantly slower
cell viability, concentration dependence (cytotoxicity) (T98G cell line): substantially identical concentration dependence

— patent US11376266B2, “Antitumor agent” (KEIO UNIVERSITY, priority 2016, dated 2022)
